Experimental findings from US20090018111A1, “Novel Antimicrobial Medicament” (priority 2004, published 2009) are described below.

Like-named read-outs stand apart in the source and are kept apart here.

Assay [1] deals with 18 bacteria (27 standard strains). Nature of the assay: Sensitivity test, combination effect over the standard strains. The format is cell-based. The conditions noted are these: in combination with compound 1, standard strains. The protocol: The antibacterial activities were tested against various 18 bacteria (27 standard strains) which are representative bacteria caused clinically infectious disease (Staphylococcus aureus 3 strains, Staphylococcus epidermidis 1 strain, Micrococcus luteus 1 strain, Streptococcus pyogenes 1 strain, Enterococcus faecalis 1 strain, Enterococcus faecium 1 strain, Bacillus subtilis 1 strain, Escherichia coli 3 strains, Klebsiella pneumoniae 1 strain, Proteus mirabilis 1 strain, Proteus vulgaris 2 strains, Pseudomonas aeruginosa 3 strains, Serratia marcescens 2 strains, Enterobacter aerogenes 1 strain, Stenotrophomonas maltophilia 1 strain, Enterobacter cloacae 1 strain, Citrobacter freundii 1 strain, Moraxella catarrhalis 2 strains).
According to the standard method of Japan Chemotherapeutic Society (Chemotherapy, vol. […], p 76-79 (1981)) the test was carried out using the agar dilution method. After dissolving test samples in distilled water, agar medium containing the test samples was prepared in such a manner that the final concentration became twice serial dilution by pouring serially diluted combination drug solution or a single drug solution into agar medium. As agar medium was used Mueller Hinton Agar medium (MHA). Then, each strain was cultivated over night at 37° C. in an incubator and suspended in buffered saline solution with gelatin (BSG) in the concentration of about 10^6 CFU/ml. The suspension (about 5 μl) containing test strains was inoculated to the medium containing the test samples by Micro Planter.
When the sample is subjected to sensitivity test, this mixed solution was diluted by twice serial dilution method.
FIC index based on MIC value was calculated. […] Namely, when FIC index calculated by the following formula is equal or less than 1, the enhanced effect of the combination drug in said ratio is considered as positive. When FIC index is over 1, the enhanced effect of the combination drug in said ratio is considered as negative.
Formula of FIC index: FIC index=(MIC of Drug A in combination/MIC of Drug A alone)+(MIC of Drug B in combination/MIC of Drug B alone) N.C. in tables means being not calculated.

For a further assay, the system named is P. mirabiris GN2425. Nature of the assay: Sensitivity test (agar dilution). The format is cell-based, Proteus mirabilis. The conditions noted are these: Proteus mirabilis, P. mirabiris GN2425. The essentials:
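Each strain, cultured overnight at 37° C and adjusted to about 10^6 CFU/ml in BSG, was spotted (about 5 μl) on Mueller Hinton agar with twofold serial drug concentrations. Inhibition defines the MIC.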
(Agar dilution tests growth on a series of plates holding different concentrations.)

For the compound `CC(=N)N1CC[C@H](SC2=C(C(=O)O)N3C(=O)[C@H]([C@@H](C)O)[C@H]3C2)C1` [PAPM, panipenem], the combination effect entry in assay [1] is listed as “the combination effect was recognized”. Besides, the minimal inhibitory concentration (MIC) – broadly, the smallest concentration in the dilution series that meets the test's criterion for growth inhibition – was 0.125 µg/mL in the assay on P. mirabiris GN2425 (GN2425, Concomitant (PAPM:SM = 1:1), read-out: MIC concomitant) and 1 µg/mL with P. mirabiris GN2425 (GN2425, drug alone, read-out: MIC alone).
As for `CCN1CCN(C(=O)N[C@@H](C(=O)N[C@@H]2C(=O)N3[C@@H]2SC(C)(C)[C@@H]3C(=O)O)c2ccccc2)C(=O)C1=O` [PIPC, piperacillin], the combination effect result in assay [1] is “antagonism was recognized”. For the same compound, the MIC came to 0.25 µg/mL in the assay on P. mirabiris GN2425 (GN2425, read-out: MIC alone, drug alone) and 0.063 µg/mL in the assay on P. mirabiris GN2425 (GN2425, read-out: MIC concomitant, Concomitant (PIPC:SM = 1:1)).
